Test results: the NIST ThermoML archive (doi:10.1021/je034012m)
“And” between values parts separate entries of the source, which are not always exact repeats. Equal entries are not always repeated.

Details: Crystal

O.[Ba+2].[Cl-].[Cl-] [barium chloride monohydrate]
Details | vapor or sublimation pressure
290.45 K | 0.086 kPa
304.15 K | 0.173 kPa
304.45 K | 0.146 kPa
305.25 K | 0.138 kPa
307.25 K | 0.133 kPa
307.45 K | 0.231 kPa
307.95 K | 0.17 kPa
308.05 K | 0.142 kPa
308.45 K | 0.248 kPa and 0.272 kPa
308.65 K | 0.241 kPa
308.95 K | 0.105 kPa
309.05 K | 0.195 kPa
309.25 K | 0.344 kPa
310.15 K | 0.199 kPa
311.45 K | 0.16 kPa
312.95 K | 0.24 kPa
313.45 K | 0.274 kPa
315.35 K | 0.35 kPa
315.95 K | 0.4 kPa
316.15 K | 0.76 kPa
318.45 K | 0.312 kPa
322.85 K | 0.6 kPa
323.55 K | 0.6 kPa
334.45 K | 1.04 kPa and 1.1 kPa
334.85 K | 1.01 kPa
334.95 K | 0.96 kPa
335.45 K | 1.26 kPa
337.45 K | 1.51 kPa
337.65 K | 1.47 kPa
344.95 K | 2.06 kPa
345.25 K | 2.05 kPa

O.O.[Ba+2].[Cl-].[Cl-] [barium chloride dihydrate]
Details | vapor or sublimation pressure
295.45 K | 0.5 kPa
295.55 K | 0.39 kPa and 0.53 kPa
295.65 K | 0.56 kPa
297.35 K | 0.31 kPa
304.25 K | 1.22 kPa
304.55 K | 0.9 kPa
306.35 K | 1.01 kPa
306.95 K | 1.31 kPa
307.25 K | 1.39 kPa
307.35 K | 1.04 kPa
308.25 K | 1.19 kPa
309.45 K | 1.3 kPa
319.05 K | 2.5 kPa
321.15 K | 2.66 kPa
323.15 K | 3.88 kPa
323.45 K | 3.85 kPa
323.75 K | 3.97 kPa
324.15 K | 4.05 kPa
324.85 K | 5.15 kPa
325.55 K | 5.1 kPa
336.95 K | 9.4 kPa
343.65 K | 13.59 kPa
